Measured values: patent US20250101017A1, “SALT CRYSTAL FORM AND FREE BASE CRYSTAL FORM OF KINASE INHIBITOR” (CYTOSINLAB THERAPEUTICS CO., LTD., priority 2022, published 2025)
≈ marks a conversion by molar mass, not a printed value. Read-outs that look alike come from different tables or passages of the source.

Experiment: Solubility at 37° C. in buffer solutions with different pH (about 10 mg in 1 ml, 2 h and 24 h); filtrate concentration and pH, XRPD of remaining solid
Assay type: physicochemical
Details: for solubility at 2 h / solubility at 24 h: thermodynamic from solid
Description: Approximately 10 mg of malate crystal form VII-A and free base Form A were weighed separately, and 1 ml of buffer solutions with different pH were added to make the solution supersaturated, and the mixtures were stirred at 37° C. for 2 h and 24 hours. The samples were filtered, and the filtrates were measured to determine the concentration and pH value, and the remaining solid was subjected to XRPD determination. The specific results were as follows: […]

CCc1nc2c(N)ncc(-c3ccc(N4CCC(N5CCN(CC)CC5)CC4)c(OC)c3)c2nc1NC1CCOCC1 [Free base Form A, 3-ethyl-8-(4-(4-(4-ethylpiperazin-1-yl)piperidin-1-yl)-3-methoxyphenyl)-N2-(tetrahydro-2H-pyran-4-yl) pyridino [3,4-b]pyrazine-2,5-diamine]
solubility at 2 h (buffer solution pH 1.2, 37 °C, pH 1.2, simulated gastric fluid, medium pH 1.2, 2 h, read-out: Solubility at 37° C.): > 10 mg/mL | solubility at 24 h (buffer solution pH 1.2, 37 °C, pH 1.2, simulated gastric fluid, medium pH 1.2, 24 h, read-out: Solubility at 37° C.): > 10 mg/mL | solubility at 2 h (buffer solution pH 3.0, 37 °C, pH 3, aqueous buffer, medium pH 3.0, 2 h, read-out: Solubility at 37° C.): > 10 mg/mL | solubility at 24 h (buffer solution pH 3.0, 37 °C, pH 3, aqueous buffer, medium pH 3.0, 24 h, read-out: Solubility at 37° C.): > 10 mg/mL | solubility at 2 h (buffer solution pH 4.5, 37 °C, pH 4.5, aqueous buffer, medium pH 4.5, 2 h, read-out: Solubility at 37° C.): > 10 mg/mL | solubility at 2 h (buffer solution pH 4.5, 37 °C, pH 4.5, aqueous buffer, medium pH 4.5, 2 h, read-out: Solubility at 37° C. (mg/ml) 2 h): > 10 mg/mL | solubility at 24 h (buffer solution pH 4.5, 37 °C, pH 4.5, aqueous buffer, medium pH 4.5, 24 h, read-out: Solubility at 37° C.): > 10 mg/mL | solubility at 24 h (buffer solution pH 4.5, 37 °C, pH 4.5, aqueous buffer, medium pH 4.5, 24 h, read-out: Solubility at 37° C. (mg/ml) 24 h): > 10 mg/mL | pH (24 h) (filtrate, medium FaSSIF): 5.434 | pH (24 h) (filtrate, medium FeSSIF): 4.992 | pH (24 h) (filtrate, medium H2O): 4.607 | pH (24 h) (filtrate, medium SGF): 1.494 | pH (24 h) (filtrate, medium pH 1.2): 1.463 | pH (24 h) (filtrate, medium pH 3.0): 3.683 | pH (24 h) (filtrate, medium pH 4.5): 4.520 | pH (24 h) (filtrate, medium pH 6.8): 6.180 | pH (24 h) (filtrate, medium pH 7.4): 6.664 | Solubility at 37° C. (mg/ml) 2 h (medium FaSSIF, 2 h): 1.234 mg/mL (≈ 2.15 mM) | Solubility at 37° C. (medium FaSSIF, 2 h, listed as API): 1234 µg/mL (≈ 2.15 mM) | Solubility at 37° C. (mg/ml) 24 h (medium FaSSIF, 24 h): 0.983 mg/mL (≈ 1.71 mM) | Solubility at 37° C. (medium FaSSIF, 24 h, listed as API): 983 µg/mL (≈ 1.71 mM) | Crystal form (medium FaSSIF, XRPD of remaining solid, listed as API): Form A | pH (24 h) (medium FaSSIF, filtrate, 37° C., listed as API): 5.434 | Solubility at 37° C. (medium FeSSIF, 2 h): >10000 µg/mL | Solubility at 37° C. (mg/ml) 2 h (medium FeSSIF, 2 h): >10 mg/mL | Solubility at 37° C. (medium FeSSIF, 24 h): >10000 µg/mL | Solubility at 37° C. (mg/ml) 24 h (medium FeSSIF, 24 h): >10 mg/mL | pH (24 h) (medium FeSSIF, filtrate, 37° C., listed as API): 4.992 | Solubility at 37° C. (mg/ml) 2 h (medium H2O, 2 h): 0.0365 mg/mL (≈ 0.0635 mM) | Solubility at 37° C. (medium H2O, 2 h, listed as API): 36.5 µg/mL (≈ 0.0635 mM) | Solubility at 37° C. (mg/ml) 24 h (medium H2O, 24 h): 0.0046 mg/mL (≈ 0.008 mM) | Solubility at 37° C. (medium H2O, 24 h, listed as API): 4.6 µg/mL (≈ 0.008 mM) | Crystal form (medium H2O, XRPD of remaining solid, listed as API): Form A | pH (24 h) (medium H2O, filtrate, 37° C., listed as API): 4.607 | Solubility at 37° C. (medium SGF, 2 h): >10000 µg/mL | Solubility at 37° C. (mg/ml) 2 h (medium SGF, 2 h): >10 mg/mL | Solubility at 37° C. (medium SGF, 24 h): >10000 µg/mL | Solubility at 37° C. (mg/ml) 24 h (medium SGF, 24 h): >10 mg/mL | pH (24 h) (medium SGF, filtrate, 37° C., listed as API): 1.494 | pH (24 h) (medium pH 1.2, filtrate, 37° C., listed as API): 1.463 | pH (24 h) (medium pH 3.0, filtrate, 37° C., listed as API): 3.683 | pH (24 h) (medium pH 4.5, filtrate, 37° C., listed as API): 4.520 | Solubility at 37° C. (mg/ml) 2 h (medium pH 6.8, 2 h): 0.294 mg/mL (≈ 0.512 mM) | Solubility at 37° C. (medium pH 6.8, 2 h, listed as API): 294 µg/mL (≈ 0.512 mM) | Solubility at 37° C. (mg/ml) 24 h (medium pH 6.8, 24 h): 0.271 mg/mL (≈ 0.471 mM) | Solubility at 37° C. (medium pH 6.8, 24 h, listed as API): 271 µg/mL (≈ 0.471 mM) | Crystal form (medium pH 6.8, XRPD of remaining solid, listed as API): Form A | pH (24 h) (medium pH 6.8, filtrate, 37° C., listed as API): 6.180 | Solubility at 37° C. (mg/ml) 2 h (medium pH 7.4, 2 h): 0.012 mg/mL (≈ 0.0209 mM) | Solubility at 37° C. (medium pH 7.4, 2 h, listed as API): 12 µg/mL (≈ 0.0209 mM) | Solubility at 37° C. (mg/ml) 24 h (medium pH 7.4, 24 h): 0.016 mg/mL (≈ 0.0278 mM) | Solubility at 37° C. (medium pH 7.4, 24 h, listed as API): 16 µg/mL (≈ 0.0278 mM) | Crystal form (medium pH 7.4, XRPD of remaining solid, listed as API): Form A | pH (24 h) (medium pH 7.4, filtrate, 37° C., listed as API): 6.664 | solubility at 2 h (pH 1.2 buffer solution, 37 °C, pH 1.2, simulated gastric fluid, medium pH 1.2, 2 h, read-out: Solubility at 37° C. (mg/ml) 2 h): > 10 mg/mL | solubility at 24 h (pH 1.2 buffer solution, 37 °C, pH 1.2, simulated gastric fluid, medium pH 1.2, 24 h, read-out: Solubility at 37° C. (mg/ml) 24 h): > 10 mg/mL | solubility at 2 h (pH 3.0 buffer solution, 37 °C, pH 3, aqueous buffer, medium pH 3.0, 2 h, read-out: Solubility at 37° C. (mg/ml) 2 h): > 10 mg/mL
